Test results as given in paper PMC8845285, “Serotoninergic receptor ligands improve Tamoxifen effectiveness on breast cancer cells” (BMC Cancer, 2022).

Experiments:
HT2C receptor = test: 5-HT2C protein levels, Western blot; type: cell-based, human; settings: 72 h, MCF7, Tamoxifen-cultured MCF7 and MCF7-R cells
Description: RIPA buffer (Promega, Madison, Wisconsin, USA) was used for proteins’ extraction. Lysates ([…] protein/sample) were blotted with anti-5HT2C (1:500). Total lysates were normalized using anti-Vinculin (1:10000). The autoradiographs shown were obtained by ECL kit (Bio-Rad, Hercules, CA, USA).
Figure S4. 5-HT2C protein in MCF7, Tamoxifen-cultured MCF7 and MCF-R cells in absence or in presence of SER.
Cells were treated with 5µM SER79 or 20µM SER68. Alter 72h, cell lysa te swere obtained and 5-HT2C protein le ve lswere measured by western blot analysis. Vinculin was used for protein le ve ls normalization. […]
(1 picture or pasted object on this page, not shown here)

MDA-MB231 cells = test: MDA-MB231 cell viability, sulforhodamine B assay; type: cell-based, human; settings: for inhibition of MDA-MB231 cell growth: 100 μM, 72 h; for IC50: Homo sapiens, MDA-MB-231, 72 h treatment
Description: (§1) MCF7 (ER^+, PR^+, HER2^−), SKBR3 (ER^−, PR^+, HER2^+) and MDA-MB231 (ER^−, PR^−, HER2^−) human BC cells and MCF10A non-cancer breast epithelial cells were available in our laboratory. MCF7, SKBR3 and MDA-MB231 cells were cultured in DMEM, supplemented with 10% FBS, 2 mM glutamine, 100 units/ml penicillin and 100 units/ml streptomycin. MCF10A cells were cultured in MEBM, supplemented with 0.4% BPE, 0.1% hEGF, 0.1%, Insulin, 0.1% Hydrocortisone and 0.1% GA-1000. […] Treatment with SER were carried out in culture conditions. Treatment with Tamoxifen and/or SER were carried out upon 48 h estrogen starvation in phenol-red free medium supplemented with 10% Charcoal Stripped (C/S) FBS, 2 mM glutamine, 100 units/ml penicillin and 100 units/ml streptomycin.
(§2) Cells were fixed with 50% trichloroacetic acid for at least 2 h at 4 °C, washed with distilled and de-ionized water, air-dryed and stained 30 min with 0.4% sulforhodamine B in 1% acetic acid. Unbound dye was removed and 10 mM tris-HCl solution (pH 7.5) was added to dissolve the protein-bound dye. Cell survival was assessed by optical density determination at 510 nm using a microplate reader.
Cell viability was assessed, after 72 h, by sulforhodamine B assay (see Methods).

[1] = target: T1, serotonin 5-HT1A receptor (Rattus norvegicus, UniProt P19327); test: radioligand binding assay, 5-HT1A, [3H]-8-OH-DPAT; settings: rat brain cortex
T1 construct: serotonin 5-HT1A receptor, [^3H]-8-OH-DPAT, rat brain cortex; from tissue; host or cells: rat brain cortex
T1 sequence (P19327 1-422): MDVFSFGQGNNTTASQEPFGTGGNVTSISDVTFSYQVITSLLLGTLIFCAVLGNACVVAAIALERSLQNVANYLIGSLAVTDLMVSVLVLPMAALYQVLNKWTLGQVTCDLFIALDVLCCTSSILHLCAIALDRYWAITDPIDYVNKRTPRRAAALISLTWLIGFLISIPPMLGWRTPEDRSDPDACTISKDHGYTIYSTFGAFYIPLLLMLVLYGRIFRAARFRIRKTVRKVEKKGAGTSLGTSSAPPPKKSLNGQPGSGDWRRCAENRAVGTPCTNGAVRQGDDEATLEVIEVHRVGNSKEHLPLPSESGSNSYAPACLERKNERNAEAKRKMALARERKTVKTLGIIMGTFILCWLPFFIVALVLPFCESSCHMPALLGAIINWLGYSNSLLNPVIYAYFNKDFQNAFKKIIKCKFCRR
Description: All reactions were monitored by TLC, carried out on Merck 60G F254 plates with fluorescent indicator and the plates were visualized with UV light (254 nm). Each final compound and intermediate was purified by silica gel column chromatography (Macherey-Nagel 60 0,063–0,2 mm/70–230 mesh). […] Unless otherwise stated, all spectra were recorded in CDCl3. Chemical shifts are reported in ppm using Me4Si as internal standard. The following abbreviations are used to describe peak patterns when appropriate: s (singlet), d (doublet), t (triplet), m (multiplet), q (quartet), qt (quintet), dd (double doublet), ddd (double dd), bs (broad singlet). Mass spectra of the final products were performed on LTQ Orbitrap XL™ Fourier transform mass spectrometer (FTMS) equipped with ESI ION MAX™ source (Thermo Fisher, San José, USA). Melting points were determined using a Buchi B-540 hot-stage instrument and are uncorrected. […] All the compounds were dissolved in 5% DMSO. The following specific radioligands and tissue sources were used: (a)serotonin 5-HT1A receptor, [^3H]-8-OH-DPAT, rat brain cortex; (b) serotonin 5-HT2A receptor, [^3H]ketanserin, rat brain cortex; (c)serotonin 5-HT2C receptor, [^3H]mesulergine, rat brain cortex. Non-specific binding was determined as described in the experimental section, and specific binding as the difference between total and non-specific binding. […] The IC50 values obtained were used to calculate apparent inhibition constants (Ki) by the method of Cheng and Prussoff, from the following equation: Ki = IC50/(1 + S/KD) where S represents the concentration of the hot ligand used and KD its receptor dissociation constant (KD values, obtained by Scatchard analysis, were calculated for each labeled ligand). Radioligand binding assays for 5-HT1A were performed following a published procedure. 5-HT2A and 5-HT2C binding assays were performed reported by Herndon et al..

SKBR3 cells = test: SKBR3 cell viability, sulforhodamine B assay; type: cell-based, human; settings: for IC50: Homo sapiens, SK-BR-3, 72 h treatment
Description: as §1, §2
Fig. 3 Effect of SER on SKBR3 cell viability. […] Cell viability was assessed, after 72 h, by sulforhodamine B assay (see Methods).

SMILES: O=C1C2C3C=CC(C3)C2C(=O)N1OCCN1CCN(c2ccc(Cl)c(Cl)c2)CC1 (stereo not drawn) [SER68]
- change in protein levels of HT2C receptors upon SER treatment (HT2C receptor; 20 µM): no difference in protein levels
- inhibition of MDA-MB231 cell growth (MDA-MB231 cells): able to inhibit
- IC50 (MDA-MB231 cells): 171 ± 37.3 µM
- Ki ± SD, 5-HT1A [3H]8OH-DPAT [1]: No affinity
- IC50 (SKBR3 cells): 260 ± 94.9 µM

SMILES: N#CN=C(NCCCN1CCN(C(c2ccc(F)cc2)c2ccc(F)cc2)CC1)c1ccccn1 [SER79]
- change in protein levels of HT2C receptors upon SER treatment (HT2C receptor; 5 µM): no difference in protein levels
- inhibition of MDA-MB231 cell growth (MDA-MB231 cells): able to inhibit
- IC50 (MDA-MB231 cells): 117 µM
- Ki ± SD, 5-HT1A [3H]8OH-DPAT [1]: no affinity
- Ki ([1]; read-out: Ki ± SD, 5-HT1A [3H]8OH-DPAT): > 10 µM
- reduction of SKBR3 cell viability (SKBR3 cells; 50 μM, 72 h): ≈ 50%
- IC50 (SKBR3 cells): 53.6 ± 10.4 µM
